PubChem BioAssay AID248 (DTP/NCI, 2004)
Inconclusive results and toxic doses are left out. No stated cut-off is given here; in the data, active means T/C of 150% or more; inactive means T/C below 125%.

System: L1210 leukemia ip in BDF1 mice, survival T/C
Assay: NCI In Vivo Anticancer Drug Screen. Data for tumor model L1210 Leukemia (intraperitoneal) in B6D2F1 (BDF1) mice
Settings: endpoint: mean survival time, higher = longer survival
Method in brief: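 Tumor cells were implanted, animals were treated, and survival was followed. The result divides the treated measurement by the vehicle-control measurement.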

[1] = dose: 100.0 mg/kg/injection, schedule: Q04DX003 (ip), vehicle: saline with Tween-80
[2] = dose: 200.0 mg/kg/injection, schedule: Q04DX003 (ip), vehicle: saline with Tween-80
[3] = dose: 400.0 mg/kg/injection, schedule: Q04DX003 (ip), vehicle: saline with Tween-80
[4] = dose: 12.5 mg/kg/injection, schedule: Q01DX009 (ip), vehicle: Klucel (hydroxypropylcellulose) (HPC)
[5] = dose: 25.0 mg/kg/injection, schedule: Q01DX009 (ip), vehicle: Klucel (hydroxypropylcellulose) (HPC)
[6] = dose: 50.0 mg/kg/injection, schedule: Q01DX009 (ip), vehicle: Klucel (hydroxypropylcellulose) (HPC)
[7] = dose: 100.0 mg/kg/injection, schedule: Q01DX009 (ip), vehicle: saline with Tween-80
[8] = dose: 200.0 mg/kg/injection, schedule: Q01DX009 (ip), vehicle: saline with Tween-80
[9] = dose: 400.0 mg/kg/injection, schedule: Q01DX009 (ip), vehicle: saline with Tween-80
[10] = dose: 100.0 mg/kg/injection, schedule: Q01DX009 (ip), vehicle: Klucel (hydroxypropylcellulose) (HPC)
[11] = dose: 50.0 mg/kg/injection, schedule: Q01DX001 (ip), vehicle: carboxymethylcellulose (CMC)
[12] = dose: 100.0 mg/kg/injection, schedule: Q01DX001 (ip), vehicle: carboxymethylcellulose (CMC)
[13] = dose: 200.0 mg/kg/injection, schedule: Q01DX001 (ip), vehicle: carboxymethylcellulose (CMC)

Measured: T/C

C=CN1CCCC1=O
inactive: dose: 100.0 mg/kg/injection, schedule: Q01DX001 (ip), vehicle: acetone 95 % of control | dose: 100.0 mg/kg/injection, schedule: Q01DX001 (ip), vehicle: saline 97 % of control | dose: 100.0 mg/kg/injection, schedule: Q04DX002 (ip), vehicle: saline 103 % of control | [1] 100 % of control | dose: 200.0 mg/kg/injection, schedule: Q01DX001 (ip), vehicle: acetone 95 % of control | dose: 200.0 mg/kg/injection, schedule: Q01DX001 (ip), vehicle: saline 92 % of control | dose: 200.0 mg/kg/injection, schedule: Q04DX002 (ip), vehicle: saline 103 % of control | [2] 92 % of control | dose: 400.0 mg/kg/injection, schedule: Q01DX001 (ip), vehicle: acetone 93 % of control | dose: 400.0 mg/kg/injection, schedule: Q04DX002 (ip), vehicle: saline 103 % of control | [3] 92 % of control | dose: 600.0 mg/kg/injection, schedule: Q01DX001 (ip), vehicle: saline 100 % of control | dose: 800.0 mg/kg/injection, schedule: Q01DX001 (ip), vehicle: saline 100 % of control | dose: 1000.0 mg/kg/injection, schedule: Q01DX001 (ip), vehicle: saline 106 % of control | dose: 1200.0 mg/kg/injection, schedule: Q01DX001 (ip), vehicle: saline 108 % of control | dose: 1.9 grams/kg/injection, schedule: Q01DX001 (iv), vehicle: saline 98 % of control | dose: 1.9 grams/kg/injection, schedule: Q01DX005 (iv), vehicle: saline 97 % of control | dose: 1.9 grams/kg/injection, schedule: Q04DX003 (iv), vehicle: saline 97 % of control | dose: 3.8 grams/kg/injection, schedule: Q01DX001 (ip), vehicle: saline 90 % of control | dose: 3.8 grams/kg/injection, schedule: Q01DX001 (iv), vehicle: saline 97 % of control | dose: 3.8 grams/kg/injection, schedule: Q01DX005 (ip), vehicle: saline 100 % of control | dose: 3.8 grams/kg/injection, schedule: Q01DX005 (iv), vehicle: saline 96 % of control | dose: 3.8 grams/kg/injection, schedule: Q01DX009 (ip), vehicle: saline 91 % of control | dose: 3.8 grams/kg/injection, schedule: Q03HX008 (ip), vehicle: saline 97 % of control | dose: 3.8 grams/kg/injection, schedule: Q03HX016 (ip), vehicle: saline 98 % of control | dose: 3.8 grams/kg/injection, schedule: Q03HX024 (ip), vehicle: saline 101 % of control | dose: 3.8 grams/kg/injection, schedule: Q04DX003 (ip), vehicle: saline 101 % of control | dose: 3.8 grams/kg/injection, schedule: Q04DX003 (iv), vehicle: saline 94 % of control | dose: 3.8 grams/kg/injection, schedule: Q08DX002 (ip), vehicle: saline 97 % of control | dose: 7.5 grams/kg/injection, schedule: Q01DX001 (ip), vehicle: saline 93 % of control | dose: 7.5 grams/kg/injection, schedule: Q01DX001 (iv), vehicle: saline 97 % of control | dose: 7.5 grams/kg/injection, schedule: Q01DX005 (ip), vehicle: saline 103 % of control | dose: 7.5 grams/kg/injection, schedule: Q01DX005 (iv), vehicle: saline 93 % of control | dose: 7.5 grams/kg/injection, schedule: Q01DX009 (ip), vehicle: saline 97 % of control | dose: 7.5 grams/kg/injection, schedule: Q03HX008 (ip), vehicle: saline 96 % of control | dose: 7.5 grams/kg/injection, schedule: Q03HX016 (ip), vehicle: saline 95 % of control | dose: 7.5 grams/kg/injection, schedule: Q03HX024 (ip), vehicle: saline 103 % of control | dose: 7.5 grams/kg/injection, schedule: Q04DX003 (ip), vehicle: saline 98 % of control | dose: 7.5 grams/kg/injection, schedule: Q04DX003 (iv), vehicle: saline 92 % of control | dose: 7.5 grams/kg/injection, schedule: Q08DX002 (ip), vehicle: saline 98 % of control | dose: 15.0 grams/kg/injection, schedule: Q01DX001 (ip), vehicle: saline 88 % of control | dose: 15.0 grams/kg/injection, schedule: Q01DX005 (ip), vehicle: saline 102 % of control | dose: 15.0 grams/kg/injection, schedule: Q01DX009 (ip), vehicle: saline 96 % of control | dose: 15.0 grams/kg/injection, schedule: Q04DX003 (ip), vehicle: saline 95 % of control | dose: 15.0 grams/kg/injection, schedule: Q08DX002 (ip), vehicle: saline 94 % of control

CNc1cc(C(C)C)ccc1C
inactive: [4] 102 % of control | [5] 96 % of control | [6] 113 % of control | dose: 100.0 mg/kg/injection, schedule: Q01DX009 (sc), vehicle: olive oil, sesame oil, peanut oil 114 % of control | dose: 100.0 mg/kg/injection, schedule: Q04DX003 (sc), vehicle: olive oil, sesame oil, peanut oil 108 % of control | dose: 200.0 mg/kg/injection, schedule: Q01DX009 (sc), vehicle: olive oil, sesame oil, peanut oil 105 % of control | dose: 200.0 mg/kg/injection, schedule: Q04DX003 (sc), vehicle: olive oil, sesame oil, peanut oil 105 % of control | dose: 400.0 mg/kg/injection, schedule: Q01DX009 (sc), vehicle: olive oil, sesame oil, peanut oil 110 % of control | dose: 400.0 mg/kg/injection, schedule: Q04DX003 (sc), vehicle: olive oil, sesame oil, peanut oil 103 % of control

Cc1ccc(/C(=C/c2ccc([N+](=O)[O-])cc2)C(=O)Nc2ccc(S(=O)(=O)F)cc2)cc1
inactive: [7] 94 % of control | [8] 89 % of control | [9] 86 % of control

O=C1Oc2ccccc2C(=O)Oc2ccccc2C(=O)Oc2ccccc2C(=O)Oc2ccccc21
inactive: dose: 75.0 mg/kg/injection, schedule: Q01DX001 (ip), vehicle: saline 87 % of control

COc1ccc(COC(=O)Oc2ccc(C#N)cc2)cc1OC
inactive: [1] 106 % of control | [2] 96 % of control | [3] 93 % of control

Cc1cc(C)c(NC(=O)Nc2ccc(C(Cl)(Cl)Cl)cc2)c(C)c1
inactive: [10] 95 % of control | dose: 200.0 mg/kg/injection, schedule: Q01DX009 (ip), vehicle: Klucel (hydroxypropylcellulose) (HPC) 98 % of control | dose: 400.0 mg/kg/injection, schedule: Q01DX009 (ip), vehicle: Klucel (hydroxypropylcellulose) (HPC) 94 % of control

CCCc1cc(=O)c2ccccc2n1COC(C)=O
inactive: [11] 119 % of control | [12] 113 % of control | [13] 113 % of control

Cc1ccc(CNC(=S)NC2CCCCC2)cc1C
inactive: [5] 97 % of control | [6] 93 % of control | [10] 93 % of control

Cl/C=C\C[N+]12CN3CN(CN(C3)C1)C2
inactive: dose: 25.0 mg/kg/injection, schedule: Q04DX003 (ip), vehicle: saline 100 % of control | dose: 50.0 mg/kg/injection, schedule: Q04DX003 (ip), vehicle: saline 94 % of control

Cc1ccc(C(C)(C)[CH2][Sn]([CH2]C(C)(C)c2ccc(C)cc2)([CH2]C(C)(C)c2ccc(C)cc2)[CH2]C(C)(C)c2ccc(C)cc2)cc1
inactive: dose: 50.0 mg/kg/injection, schedule: Q04DX002 (ip), vehicle: saline with Tween-80 92 % of control | dose: 100.0 mg/kg/injection, schedule: Q04DX002 (ip), vehicle: saline with Tween-80 100 % of control | dose: 200.0 mg/kg/injection, schedule: Q04DX002 (ip), vehicle: saline with Tween-80 103 % of control | dose: 400.0 mg/kg/injection, schedule: Q04DX002 (ip), vehicle: saline with Tween-80 92 % of control

CC(OC(=O)Nc1ccccc1)C(=O)O (configuration not stated)
inactive: [7] 92 % of control | [1] 96 % of control | [8] 92 % of control | [2] 101 % of control | [9] 95 % of control | [3] 96 % of control

Cn1cnnc1N
inactive: dose: 100.0 mg/kg/injection, schedule: Q04DX003 (ip), vehicle: saline 97 % of control | dose: 200.0 mg/kg/injection, schedule: Q04DX003 (ip), vehicle: saline 101 % of control | dose: 400.0 mg/kg/injection, schedule: Q04DX003 (ip), vehicle: saline 103 % of control

CCc1ccc(/C(C#N)=C/c2ccc(N(C)CCC#N)cc2)cc1
inactive: [4] 95 % of control | [5] 95 % of control | [6] 94 % of control

Cc1ccc(S(=O)(=O)N(c2cc(C)ccc2C)c2ccccc2[N+](=O)[O-])cc1
inactive: [11] 98 % of control | [12] 91 % of control | [13] 96 % of control | dose: 400.0 mg/kg/injection, schedule: Q01DX001 (ip), vehicle: carboxymethylcellulose (CMC) 98 % of control
